Test results taken from paper PMC5761851, “Application of a phenotypic drug discovery strategy to identify biological and chemical starting points for inhibition of TSLP production in lung epithelial cells” (PLoS ONE, 2018).

How the values were obtained:
Assay in all cases: kinase selectivity panel
Type in all cases: biochemical
[1] = target: T1, ASK1 (Homo sapiens, UniProt Q99683); details: read-out: percentage of control activity (POC), ASK1
T1 construct: purchased Eurofins Pharma Discovery Services (KinaseProfiler; Cerep BioPrint panel)
T1 sequence (Q99683 1-1374): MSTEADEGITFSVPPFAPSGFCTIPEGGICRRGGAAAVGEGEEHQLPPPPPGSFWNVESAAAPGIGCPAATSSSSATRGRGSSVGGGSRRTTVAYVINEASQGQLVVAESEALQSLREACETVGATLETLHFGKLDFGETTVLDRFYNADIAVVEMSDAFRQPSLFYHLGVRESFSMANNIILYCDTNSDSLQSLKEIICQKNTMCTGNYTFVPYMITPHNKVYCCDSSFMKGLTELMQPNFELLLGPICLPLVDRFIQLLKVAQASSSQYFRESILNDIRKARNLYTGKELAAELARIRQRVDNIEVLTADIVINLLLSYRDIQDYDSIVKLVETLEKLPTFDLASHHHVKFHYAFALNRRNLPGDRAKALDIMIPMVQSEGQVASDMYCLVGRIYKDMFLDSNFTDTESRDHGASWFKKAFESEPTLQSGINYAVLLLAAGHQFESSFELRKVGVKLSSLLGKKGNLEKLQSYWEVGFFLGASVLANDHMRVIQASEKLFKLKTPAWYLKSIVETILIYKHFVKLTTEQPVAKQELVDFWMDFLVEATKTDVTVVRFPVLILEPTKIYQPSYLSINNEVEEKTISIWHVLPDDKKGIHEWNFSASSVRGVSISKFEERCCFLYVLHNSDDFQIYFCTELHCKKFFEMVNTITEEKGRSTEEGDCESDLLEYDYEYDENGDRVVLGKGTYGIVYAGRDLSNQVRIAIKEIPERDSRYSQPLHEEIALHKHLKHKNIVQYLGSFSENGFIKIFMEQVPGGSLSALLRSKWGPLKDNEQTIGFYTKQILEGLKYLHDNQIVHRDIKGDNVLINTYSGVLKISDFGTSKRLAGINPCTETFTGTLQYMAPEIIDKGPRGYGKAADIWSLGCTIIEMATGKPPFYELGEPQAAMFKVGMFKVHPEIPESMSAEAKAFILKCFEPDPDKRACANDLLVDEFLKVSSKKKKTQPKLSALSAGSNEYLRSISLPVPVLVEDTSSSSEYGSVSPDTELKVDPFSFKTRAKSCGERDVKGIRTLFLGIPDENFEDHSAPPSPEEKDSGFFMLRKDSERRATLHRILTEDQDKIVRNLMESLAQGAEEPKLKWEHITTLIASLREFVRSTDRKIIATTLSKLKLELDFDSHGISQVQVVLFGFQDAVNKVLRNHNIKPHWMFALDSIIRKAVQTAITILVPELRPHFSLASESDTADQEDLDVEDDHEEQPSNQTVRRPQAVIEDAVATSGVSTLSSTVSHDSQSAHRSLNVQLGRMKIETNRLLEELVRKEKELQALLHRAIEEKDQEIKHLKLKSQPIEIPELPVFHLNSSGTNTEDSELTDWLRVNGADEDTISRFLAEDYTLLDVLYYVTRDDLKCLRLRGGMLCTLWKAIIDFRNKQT
Outline: (§1)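 Tested at 10 μM in duplicate within a panel of 125 representative kinases. For selected activities, IC50 values were then determined from 9 concentrations, each run in duplicate.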

[2] = target: T2, PKG1α (Homo sapiens, UniProt Q13976); details: read-out: percentage of control activity (POC), PKG1α
T2 construct: purchased Eurofins Pharma Discovery Services (KinaseProfiler; Cerep BioPrint panel)
T2 sequence (Q13976 1-671): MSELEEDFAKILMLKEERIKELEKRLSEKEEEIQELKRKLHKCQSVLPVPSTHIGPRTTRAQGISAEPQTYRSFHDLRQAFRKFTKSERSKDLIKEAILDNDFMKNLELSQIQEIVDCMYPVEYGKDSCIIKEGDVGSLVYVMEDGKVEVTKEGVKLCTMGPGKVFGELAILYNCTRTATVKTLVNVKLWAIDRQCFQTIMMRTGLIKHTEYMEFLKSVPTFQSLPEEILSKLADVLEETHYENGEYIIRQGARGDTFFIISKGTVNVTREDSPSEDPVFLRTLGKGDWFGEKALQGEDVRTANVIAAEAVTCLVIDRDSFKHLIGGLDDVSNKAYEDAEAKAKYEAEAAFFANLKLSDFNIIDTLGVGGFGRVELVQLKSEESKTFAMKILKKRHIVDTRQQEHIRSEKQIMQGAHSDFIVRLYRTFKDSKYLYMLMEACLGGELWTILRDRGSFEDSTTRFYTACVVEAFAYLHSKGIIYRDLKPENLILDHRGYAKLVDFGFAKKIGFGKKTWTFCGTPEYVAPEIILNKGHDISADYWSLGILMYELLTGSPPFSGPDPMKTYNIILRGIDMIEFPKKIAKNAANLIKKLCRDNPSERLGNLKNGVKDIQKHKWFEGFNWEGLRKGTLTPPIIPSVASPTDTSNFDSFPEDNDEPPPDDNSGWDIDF
Outline: as §1

[3] = target: T3, MuSK (Homo sapiens, UniProt O15146); details: read-out: percentage of control activity (POC), MuSK
T3 construct: purchased Eurofins Pharma Discovery Services (KinaseProfiler; Cerep BioPrint panel)
T3 sequence (O15146 24-869): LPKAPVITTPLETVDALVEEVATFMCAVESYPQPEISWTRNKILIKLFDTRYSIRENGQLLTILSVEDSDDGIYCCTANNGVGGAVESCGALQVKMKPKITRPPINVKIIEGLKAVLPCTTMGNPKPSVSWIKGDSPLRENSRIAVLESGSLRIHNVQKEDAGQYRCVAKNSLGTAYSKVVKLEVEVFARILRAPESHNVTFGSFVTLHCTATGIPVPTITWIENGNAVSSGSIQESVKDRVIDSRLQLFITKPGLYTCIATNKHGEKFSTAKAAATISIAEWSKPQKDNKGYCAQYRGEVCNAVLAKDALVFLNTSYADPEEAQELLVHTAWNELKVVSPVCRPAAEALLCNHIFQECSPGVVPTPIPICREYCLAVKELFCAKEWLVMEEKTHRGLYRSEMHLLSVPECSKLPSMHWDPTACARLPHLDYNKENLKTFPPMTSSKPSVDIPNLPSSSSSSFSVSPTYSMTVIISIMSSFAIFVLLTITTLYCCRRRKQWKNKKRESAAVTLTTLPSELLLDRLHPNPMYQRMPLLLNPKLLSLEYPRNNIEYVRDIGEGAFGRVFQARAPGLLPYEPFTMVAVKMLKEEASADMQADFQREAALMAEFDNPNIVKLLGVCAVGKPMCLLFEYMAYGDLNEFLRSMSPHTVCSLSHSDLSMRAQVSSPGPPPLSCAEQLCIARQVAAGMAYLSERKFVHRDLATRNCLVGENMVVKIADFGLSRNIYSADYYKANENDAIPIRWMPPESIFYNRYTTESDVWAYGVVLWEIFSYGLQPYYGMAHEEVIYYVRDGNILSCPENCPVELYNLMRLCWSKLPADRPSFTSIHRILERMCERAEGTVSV
Outline: as §1

Q: With `CC(C)(C)N1CCC(c2cc(-c3ccc(F)cc3Cl)c3cc[n+]([O-])c(-c4c(Cl)cccc4Cl)c3n2)CC1` [compound 2] as the molecule, how does the remaining activity at 10 µM [1] read?
A: The remaining activity at 10 µM was 100%.

Q: And the remaining activity at 10 µM [2]?
A: Its remaining activity at 10 µM is 108%.

Q: What about the remaining activity at 10 µM [3] of the same molecule?
A: Its remaining activity at 10 µM is 110%.

Q: With `Cc1ccc(C(=O)NCC2CC2)cc1-c1ccc2c(c1)NC(=O)C21CCCC1` [compound 3] as the molecule, how does the remaining activity at 10 µM [1] read?
A: Its remaining activity at 10 µM is 97%.

Q: What about the remaining activity at 10 µM [2] of the same molecule?
A: Its remaining activity at 10 µM is 102%.

Q: And the remaining activity at 10 µM [3]?
A: The remaining activity at 10 µM was 106%.

Q: Which results are given for `Cn1cc(-c2cccc(-c3nc(C(=O)NC4C5CC6CC4CC(O)(C6)C5)c(N)nc3N)c2)cn1` (stereo not drawn) [compound 4]?
A: remaining activity at 10 µM [1]: 92%; remaining activity at 10 µM [2]: 97%; remaining activity at 10 µM [3]: 101%

Q: Which results are given for `CS(=O)(=O)N1CCN(c2ccc(Nc3ncc(C(N)=O)c(NC4CC4)n3)cc2)CC1` [compound 5]?
A: remaining activity at 10 µM [1]: 0%; remaining activity at 10 µM [2]: 66%; remaining activity at 10 µM [3]: 60%

Q: For `COc1c(NC(=O)c2ccc(C)c(-c3nnc4c(NCC(C)(C)C)nccn34)c2)cc(C(C)(C)C)cc1NS(C)(=O)=O` [compound 7, reference compound], which remaining activity at 10 µM [1] is on record?
A: Its remaining activity at 10 µM is 87%.

Q: And the remaining activity at 10 µM [2]?
A: The remaining activity at 10 µM was 105%.

Q: And the remaining activity at 10 µM [3]?
A: The remaining activity at 10 µM was 104%.
